From ChEMBL document CHEMBL1135157, “Focused library approach for identification of new N-acylphenylalanines as VCAM/VLA-4 antagonists” (Bioorg Med Chem Lett, 2002)

Tests used:
[1] = Inhibition of Very late antigen 4/vascular cell adhesion molecule 1 activity in ELISA assay, at 10 nM concentration
[2] = Inhibition of Very late antigen 4/vascular cell adhesion molecule 1 inhibition activity in an ELISA assay
[3] = biological target: Integrin alpha-4/beta-1 (Homo sapiens, UniProt P05556+P13612); experiment: Inhibition of Very late antigen 4 of Ramos cell adhesion to vascular cell adhesion molecule 1; type: cell-based
Chain of Integrin alpha-4/beta-1 (P05556 whole entry): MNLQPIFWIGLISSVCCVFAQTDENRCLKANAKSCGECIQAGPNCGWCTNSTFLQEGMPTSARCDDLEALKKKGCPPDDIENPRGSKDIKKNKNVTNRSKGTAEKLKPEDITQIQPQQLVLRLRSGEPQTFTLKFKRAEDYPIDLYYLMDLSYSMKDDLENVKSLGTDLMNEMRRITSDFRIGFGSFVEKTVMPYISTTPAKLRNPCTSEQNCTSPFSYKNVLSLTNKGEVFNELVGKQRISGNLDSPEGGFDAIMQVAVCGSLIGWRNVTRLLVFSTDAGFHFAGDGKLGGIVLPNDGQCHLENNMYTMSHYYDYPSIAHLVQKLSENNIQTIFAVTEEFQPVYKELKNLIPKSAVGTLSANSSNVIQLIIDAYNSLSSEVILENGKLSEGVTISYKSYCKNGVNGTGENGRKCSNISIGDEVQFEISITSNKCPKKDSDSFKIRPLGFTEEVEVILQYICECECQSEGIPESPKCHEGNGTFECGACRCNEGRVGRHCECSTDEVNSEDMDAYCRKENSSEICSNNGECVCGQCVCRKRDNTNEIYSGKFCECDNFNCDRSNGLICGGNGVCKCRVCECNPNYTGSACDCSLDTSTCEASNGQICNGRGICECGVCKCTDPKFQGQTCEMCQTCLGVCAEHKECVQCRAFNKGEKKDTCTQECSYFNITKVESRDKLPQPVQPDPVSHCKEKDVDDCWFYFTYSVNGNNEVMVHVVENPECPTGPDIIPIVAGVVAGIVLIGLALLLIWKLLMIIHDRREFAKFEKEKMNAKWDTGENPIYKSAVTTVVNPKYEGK
Chain of Integrin alpha-4/beta-1 (P13612 whole entry): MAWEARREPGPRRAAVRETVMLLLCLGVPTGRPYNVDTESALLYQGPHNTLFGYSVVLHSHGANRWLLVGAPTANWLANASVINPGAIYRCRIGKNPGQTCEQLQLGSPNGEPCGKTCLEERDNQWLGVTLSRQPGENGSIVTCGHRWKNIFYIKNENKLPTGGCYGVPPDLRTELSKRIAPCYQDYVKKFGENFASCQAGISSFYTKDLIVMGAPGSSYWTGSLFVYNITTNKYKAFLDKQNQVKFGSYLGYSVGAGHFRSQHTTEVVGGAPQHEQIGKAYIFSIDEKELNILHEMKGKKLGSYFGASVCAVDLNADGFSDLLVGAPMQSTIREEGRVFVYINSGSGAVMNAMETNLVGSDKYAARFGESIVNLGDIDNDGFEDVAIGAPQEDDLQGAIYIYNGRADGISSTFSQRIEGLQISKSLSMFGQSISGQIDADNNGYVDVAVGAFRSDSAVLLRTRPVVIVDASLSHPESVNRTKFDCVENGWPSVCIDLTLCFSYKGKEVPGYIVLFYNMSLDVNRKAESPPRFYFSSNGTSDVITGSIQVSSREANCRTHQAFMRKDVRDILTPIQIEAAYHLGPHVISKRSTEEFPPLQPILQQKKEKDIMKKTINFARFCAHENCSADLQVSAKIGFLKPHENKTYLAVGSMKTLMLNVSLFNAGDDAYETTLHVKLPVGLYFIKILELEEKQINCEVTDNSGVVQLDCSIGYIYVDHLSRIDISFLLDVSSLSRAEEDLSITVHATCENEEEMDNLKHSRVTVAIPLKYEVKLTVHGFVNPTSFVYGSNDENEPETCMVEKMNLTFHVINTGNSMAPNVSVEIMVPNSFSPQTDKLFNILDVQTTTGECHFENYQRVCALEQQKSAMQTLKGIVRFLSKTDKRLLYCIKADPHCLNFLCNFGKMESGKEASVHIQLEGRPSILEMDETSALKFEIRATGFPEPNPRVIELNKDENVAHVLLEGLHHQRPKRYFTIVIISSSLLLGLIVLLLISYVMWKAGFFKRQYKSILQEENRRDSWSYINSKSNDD

inhibition [1] [%]	IC50 [2] [nM]	IC50 [3] [nM]	SMILES
73	1.4		COc1ccc(C2(C(=O)N[C@@H](Cc3ccc(NC(=O)c4ccnc5ccccc45)cc3)C(=O)O)CCCC2)cc1
69	3		CC1(C(=O)N[C@@H](Cc2ccc(NC(=O)c3ccnc4ccccc34)cc2)C(=O)O)CC1(Cl)Cl (some centres undefined)
23			CC(C)(C)C(=O)N[C@@H](Cc1ccc(NC(=O)c2ccnc3ccccc23)cc1)C(=O)O
37			O=C(Nc1ccc(C[C@H](NC(=O)C2CCCCC2)C(=O)O)cc1)c1ccnc2ccccc12
73	4.6		CC(C)C(C(=O)N[C@@H](Cc1ccc(NC(=O)c2ccnc3ccccc23)cc1)C(=O)O)c1ccccc1 (some centres undefined)
49	7		CC1(C(=O)N[C@@H](Cc2ccc(NC(=O)c3ccnc4ccccc34)cc2)C(=O)O)CCCCC1
12			O=C(CCc1ccccc1)N[C@@H](Cc1ccc(NC(=O)c2ccnc3ccccc23)cc1)C(=O)O
	0.37	12	O=C(Nc1ccc(C[C@H](NC(=O)[C@H]2CCC(=O)N2Cc2ccccc2)C(=O)O)cc1)c1c(Cl)cccc1Cl
73	4.7		O=C(N[C@@H](Cc1ccc(NC(=O)c2ccnc3ccccc23)cc1)C(=O)O)c1ccccc1[N+](=O)[O-]
24			O=C(Nc1ccc(C[C@H](NC(=O)[C@@H]2CSCN2C(=O)c2ccccc2)C(=O)O)cc1)c1ccnc2ccccc12
15			O=C(Nc1ccc(C[C@H](NC(=O)C2CCc3ccccc3C2)C(=O)O)cc1)c1ccnc2ccccc12 (some centres undefined)
19			O=C(N[C@@H](Cc1ccc(NC(=O)c2ccnc3ccccc23)cc1)C(=O)O)c1ccccc1
49	5.8		CCC(C(=O)N[C@@H](Cc1ccc(NC(=O)c2ccnc3ccccc23)cc1)C(=O)O)c1ccccc1 (some centres undefined)
46			Cc1noc(C)c1C(=O)N[C@@H](Cc1ccc(NC(=O)c2ccnc3ccccc23)cc1)C(=O)O
64	7.6		N#CC1(C(=O)N[C@@H](Cc2ccc(NC(=O)c3ccnc4ccccc34)cc2)C(=O)O)CCCC1
13			O=C(N[C@@H](Cc1ccc(NC(=O)c2ccnc3ccccc23)cc1)C(=O)O)C(=O)c1ccccc1
	1.2	81	Cc1cccc(C)c1C(=O)N[C@@H](Cc1ccc(NC(=O)c2c(Cl)cccc2Cl)cc1)C(=O)O
42			O=C(N[C@@H](Cc1ccc(NC(=O)c2ccnc3ccccc23)cc1)C(=O)O)c1ccccc1F
61	2		CC(=O)N1CCC[C@H]1C(=O)N[C@@H](Cc1ccc(NC(=O)c2ccnc3ccccc23)cc1)C(=O)O
31			Cc1cccc(C(=O)N[C@@H](Cc2ccc(NC(=O)c3ccnc4ccccc34)cc2)C(=O)O)c1C
17			O=C(Nc1ccc(C[C@H](NC(=O)C2CCC2)C(=O)O)cc1)c1ccnc2ccccc12
18			O=C(Nc1ccc(C[C@H](NC(=O)[C@@H]2CCCN2C(=O)c2ccccc2)C(=O)O)cc1)c1ccnc2ccccc12
	9.8	1300	O=C(Nc1ccc(C[C@H](NC(=O)C2(c3ccccc3)CCCC2)C(=O)O)cc1)c1nccc2ccccc12
	10		O=C(Nc1ccc(C[C@H](NC(=O)C2(c3ccccc3)CCCC2)C(=O)O)cc1)c1ccccc1C(F)(F)F
53	6.4		O=C(Nc1ccc(C[C@H](NC(=O)C2(c3ccc(Cl)cc3)CCCC2)C(=O)O)cc1)c1ccnc2ccccc12

inhibition [1] [%]	IC50 [2] [nM]	IC50 [3] [nM]	SMILES
81	2.2		O=C(N[C@@H](Cc1ccc(NC(=O)c2ccnc3ccccc23)cc1)C(=O)O)c1ccccc1Br
	3.4		O=C(Nc1ccc(C[C@H](NC(=O)C2(c3ccccc3)CCCC2)C(=O)O)cc1)c1ccnc2ccccc12 (stereo in doubt; 46) [listing 1 of 2 here]
37			CC(=O)N1CSC[C@H]1C(=O)N[C@@H](Cc1ccc(NC(=O)c2ccnc3ccccc23)cc1)C(=O)O
67	5.6		O=C(Nc1ccc(C[C@H](NC(=O)C2(c3ccccc3)CCCCC2)C(=O)O)cc1)c1ccnc2ccccc12
68	2.9		O=C(N[C@@H](Cc1ccc(NC(=O)c2ccnc3ccccc23)cc1)C(=O)O)c1ccccc1Cl
72	2.4		O=C(Nc1ccc(C[C@H](NC(=O)C23CC4CC(CC(C4)C2)C3)C(=O)O)cc1)c1ccnc2ccccc12
30			CCC(C)(C)C(=O)N[C@@H](Cc1ccc(NC(=O)c2ccnc3ccccc23)cc1)C(=O)O
51	2.3		C[C@H]1CC[C@@](C)(C(=O)N[C@@H](Cc2ccc(NC(=O)c3ccnc4ccccc34)cc2)C(=O)O)C1(C)C
61	6.6		O=C(N[C@@H](Cc1ccc(NC(=O)c2ccnc3ccccc23)cc1)C(=O)O)c1cccnc1Cl
53	1.9		O=C(Nc1ccc(C[C@H](NC(=O)[C@@H]2CSCN2C(=O)CCc2ccccc2)C(=O)O)cc1)c1ccnc2ccccc12
68			O=C(Nc1ccc(C[C@H](NC(=O)C2(c3ccccc3)CCCC2)C(=O)O)cc1)c1ccnc2ccccc12 (stereo in doubt; 46) [listing 2 of 2 here]
	6.1	2400	O=C(Nc1ccc(C[C@H](NC(=O)C2(c3ccccc3)CCCC2)C(=O)O)cc1)c1cccnc1Oc1ccccc1
19			O=C(Nc1ccc(C[C@H](NC(=O)C2(c3ccccc3)CC2)C(=O)O)cc1)c1ccnc2ccccc12
49	8.2		CCCCC(C)(CC)C(=O)N[C@@H](Cc1ccc(NC(=O)c2ccnc3ccccc23)cc1)C(=O)O (some centres undefined)
74	2.5		Cc1cccc(C)c1C(=O)N[C@@H](Cc1ccc(NC(=O)c2ccnc3ccccc23)cc1)C(=O)O
45			Cc1cc(C)c(C(=O)N[C@@H](Cc2ccc(NC(=O)c3ccnc4ccccc34)cc2)C(=O)O)c(C)c1
64	1.7		O=C(N[C@@H](Cc1ccc(NC(=O)c2ccnc3ccccc23)cc1)C(=O)O)c1c(F)cccc1F
63	9.1		Cc1ccc(C2(C(=O)N[C@@H](Cc3ccc(NC(=O)c4ccnc5ccccc45)cc3)C(=O)O)CCCC2)cc1
12			O=C(Nc1ccc(C[C@H](NC(=O)C2CC2)C(=O)O)cc1)c1ccnc2ccccc12
65	2.1		O=C(Nc1ccc(C[C@H](NC(=O)[C@@H]2CCCN2C(=O)CCc2ccccc2)C(=O)O)cc1)c1ccnc2ccccc12
	1.7	98	O=C(Nc1ccc(C[C@H](NC(=O)C2(c3ccccc3)CCCC2)C(=O)O)cc1)c1c(Cl)cccc1Cl
77	1.2		COc1ccc(C2(C(=O)N[C@@H](Cc3ccc(NC(=O)c4ccnc5ccccc45)cc3)C(=O)O)CCCCC2)cc1
25			O=C(Nc1ccc(C[C@H](NC(=O)C2CCCC2)C(=O)O)cc1)c1ccnc2ccccc12
	2.7	590	O=C(Nc1ccc(C[C@H](NC(=O)C2(c3ccccc3)CCCC2)C(=O)O)cc1)c1ccnc2ccccc12 (stereo in doubt; 56)
	23		O=C(Nc1ccc(C[C@H](NC(=O)C2(c3ccccc3)CCCC2)C(=O)O)cc1)c1ccccc1

SMILES	inhibition [1] [%]	IC50 [2] [nM]	IC50 [3] [nM]
CC1(C)C(C(=O)N[C@@H](Cc2ccc(NC(=O)c3ccnc4ccccc34)cc2)C(=O)O)C1(C)C	33		
